Data from PMC4979471 (Cell Death Discovery, 2015).
Where two headings read alike, the source gives them in different places.

Legend:
Assay in all cases: Kinase selectivity, P33-radiolabeled assay
Assay type in all cases: biochemical
Conditions in all cases: 10 μM ATP
[1] = target: T1, LATS2 (Homo sapiens, UniProt Q9NRM7)
T1 construct: purchased Reaction Biology Corp
T1 sequence (Q9NRM7 1-1088): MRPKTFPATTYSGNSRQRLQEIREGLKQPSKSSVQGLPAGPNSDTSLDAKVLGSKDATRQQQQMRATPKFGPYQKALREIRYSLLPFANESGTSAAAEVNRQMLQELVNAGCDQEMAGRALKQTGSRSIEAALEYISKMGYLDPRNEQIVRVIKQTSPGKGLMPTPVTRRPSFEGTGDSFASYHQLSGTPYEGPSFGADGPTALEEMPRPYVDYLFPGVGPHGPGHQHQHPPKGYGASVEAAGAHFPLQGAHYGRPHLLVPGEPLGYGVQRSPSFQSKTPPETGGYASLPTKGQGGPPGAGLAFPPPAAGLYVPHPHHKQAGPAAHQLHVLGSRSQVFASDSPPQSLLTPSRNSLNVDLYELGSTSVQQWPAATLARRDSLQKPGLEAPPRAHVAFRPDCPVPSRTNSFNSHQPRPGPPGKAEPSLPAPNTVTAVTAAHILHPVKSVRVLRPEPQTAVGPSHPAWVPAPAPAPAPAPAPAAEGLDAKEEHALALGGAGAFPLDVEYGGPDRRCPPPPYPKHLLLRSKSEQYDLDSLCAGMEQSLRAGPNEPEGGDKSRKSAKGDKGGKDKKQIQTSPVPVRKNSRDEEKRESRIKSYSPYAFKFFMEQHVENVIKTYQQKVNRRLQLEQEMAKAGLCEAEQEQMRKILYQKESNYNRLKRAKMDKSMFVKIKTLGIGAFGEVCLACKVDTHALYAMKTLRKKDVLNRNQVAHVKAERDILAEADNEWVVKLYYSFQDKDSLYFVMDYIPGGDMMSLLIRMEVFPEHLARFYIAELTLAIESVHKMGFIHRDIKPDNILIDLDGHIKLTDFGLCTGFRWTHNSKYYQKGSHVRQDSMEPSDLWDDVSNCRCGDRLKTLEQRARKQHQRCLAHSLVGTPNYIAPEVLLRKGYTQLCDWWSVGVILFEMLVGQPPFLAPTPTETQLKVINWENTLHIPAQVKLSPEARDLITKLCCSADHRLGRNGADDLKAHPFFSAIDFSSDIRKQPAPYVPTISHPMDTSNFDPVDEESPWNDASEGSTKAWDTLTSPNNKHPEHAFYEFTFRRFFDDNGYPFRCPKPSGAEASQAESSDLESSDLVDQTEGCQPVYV
Summary of the method: (§1)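 Percent residual kinase activity versus DMSO is reported. Conditions: compound at 10 μM, ATP at 10 μM, n = 2.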

[2] = target: T2, GCK/MAP4K2 (Homo sapiens, UniProt Q12851)
T2 construct: purchased Reaction Biology Corp
T2 sequence (Q12851 1-820): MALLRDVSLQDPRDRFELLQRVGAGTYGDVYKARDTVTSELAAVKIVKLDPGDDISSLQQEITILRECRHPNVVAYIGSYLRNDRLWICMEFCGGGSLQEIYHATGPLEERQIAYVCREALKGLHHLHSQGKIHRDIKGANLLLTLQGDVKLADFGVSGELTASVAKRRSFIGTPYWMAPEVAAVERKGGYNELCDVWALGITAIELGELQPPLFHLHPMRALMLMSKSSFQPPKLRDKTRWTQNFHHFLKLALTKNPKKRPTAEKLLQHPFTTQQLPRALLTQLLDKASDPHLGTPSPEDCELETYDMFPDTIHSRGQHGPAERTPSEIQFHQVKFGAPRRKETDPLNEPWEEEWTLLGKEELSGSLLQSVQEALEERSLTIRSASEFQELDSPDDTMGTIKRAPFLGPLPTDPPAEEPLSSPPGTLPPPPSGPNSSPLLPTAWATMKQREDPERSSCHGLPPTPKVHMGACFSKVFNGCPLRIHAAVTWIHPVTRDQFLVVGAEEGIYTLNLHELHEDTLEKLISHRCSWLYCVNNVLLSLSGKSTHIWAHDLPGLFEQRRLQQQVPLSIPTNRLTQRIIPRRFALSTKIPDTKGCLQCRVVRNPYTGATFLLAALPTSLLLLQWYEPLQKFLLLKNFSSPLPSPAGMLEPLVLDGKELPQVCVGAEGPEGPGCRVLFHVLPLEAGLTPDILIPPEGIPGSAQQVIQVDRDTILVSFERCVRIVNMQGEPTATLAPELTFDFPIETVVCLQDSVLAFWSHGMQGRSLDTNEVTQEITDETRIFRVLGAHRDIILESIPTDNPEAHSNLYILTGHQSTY
Summary of the method: as §1

[3] = target: T3, TNIK (Homo sapiens, UniProt Q9UKE5)
T3 construct: purchased Reaction Biology Corp
T3 sequence (Q9UKE5 whole entry): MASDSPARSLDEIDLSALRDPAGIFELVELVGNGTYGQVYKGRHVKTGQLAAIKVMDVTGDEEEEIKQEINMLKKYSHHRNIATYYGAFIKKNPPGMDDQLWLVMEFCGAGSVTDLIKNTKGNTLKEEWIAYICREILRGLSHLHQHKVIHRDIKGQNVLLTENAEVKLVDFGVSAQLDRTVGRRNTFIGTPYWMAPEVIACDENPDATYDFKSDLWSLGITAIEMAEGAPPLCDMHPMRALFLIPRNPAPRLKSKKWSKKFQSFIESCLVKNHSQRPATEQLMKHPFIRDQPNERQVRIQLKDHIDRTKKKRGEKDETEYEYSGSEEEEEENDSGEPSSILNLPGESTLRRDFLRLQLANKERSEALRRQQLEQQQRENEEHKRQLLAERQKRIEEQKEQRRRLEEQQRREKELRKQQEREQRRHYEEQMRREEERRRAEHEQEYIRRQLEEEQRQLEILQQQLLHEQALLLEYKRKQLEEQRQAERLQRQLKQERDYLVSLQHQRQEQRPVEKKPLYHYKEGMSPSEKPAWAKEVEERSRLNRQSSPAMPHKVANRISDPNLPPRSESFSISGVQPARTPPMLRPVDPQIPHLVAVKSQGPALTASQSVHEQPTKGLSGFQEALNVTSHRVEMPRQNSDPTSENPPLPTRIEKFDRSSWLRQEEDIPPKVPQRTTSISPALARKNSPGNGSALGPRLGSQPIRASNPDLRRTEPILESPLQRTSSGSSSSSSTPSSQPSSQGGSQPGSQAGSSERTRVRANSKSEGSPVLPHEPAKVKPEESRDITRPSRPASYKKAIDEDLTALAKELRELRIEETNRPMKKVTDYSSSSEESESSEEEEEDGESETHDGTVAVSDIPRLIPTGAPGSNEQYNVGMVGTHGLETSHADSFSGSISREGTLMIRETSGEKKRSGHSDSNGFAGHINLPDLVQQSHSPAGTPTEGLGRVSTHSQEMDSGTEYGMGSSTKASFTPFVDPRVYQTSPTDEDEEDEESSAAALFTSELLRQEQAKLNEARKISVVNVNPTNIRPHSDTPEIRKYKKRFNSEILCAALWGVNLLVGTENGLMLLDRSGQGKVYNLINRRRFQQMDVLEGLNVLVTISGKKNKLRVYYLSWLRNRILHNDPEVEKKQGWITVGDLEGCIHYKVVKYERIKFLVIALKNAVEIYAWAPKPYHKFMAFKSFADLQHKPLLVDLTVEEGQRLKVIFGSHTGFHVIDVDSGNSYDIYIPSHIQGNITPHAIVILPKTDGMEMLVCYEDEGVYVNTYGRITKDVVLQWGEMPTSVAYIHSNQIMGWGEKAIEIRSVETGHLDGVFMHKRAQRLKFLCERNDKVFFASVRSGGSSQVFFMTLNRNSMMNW
Summary of the method: as §1

[4] = target: T4, PKA (Homo sapiens, UniProt P17612)
T4 construct: purchased Reaction Biology Corp
Summary of the method: as §1

[5] = target: T5, FRK/PTK5 (Homo sapiens, UniProt P42685)
T5 construct: purchased Reaction Biology Corp
T5 sequence (P42685 whole entry): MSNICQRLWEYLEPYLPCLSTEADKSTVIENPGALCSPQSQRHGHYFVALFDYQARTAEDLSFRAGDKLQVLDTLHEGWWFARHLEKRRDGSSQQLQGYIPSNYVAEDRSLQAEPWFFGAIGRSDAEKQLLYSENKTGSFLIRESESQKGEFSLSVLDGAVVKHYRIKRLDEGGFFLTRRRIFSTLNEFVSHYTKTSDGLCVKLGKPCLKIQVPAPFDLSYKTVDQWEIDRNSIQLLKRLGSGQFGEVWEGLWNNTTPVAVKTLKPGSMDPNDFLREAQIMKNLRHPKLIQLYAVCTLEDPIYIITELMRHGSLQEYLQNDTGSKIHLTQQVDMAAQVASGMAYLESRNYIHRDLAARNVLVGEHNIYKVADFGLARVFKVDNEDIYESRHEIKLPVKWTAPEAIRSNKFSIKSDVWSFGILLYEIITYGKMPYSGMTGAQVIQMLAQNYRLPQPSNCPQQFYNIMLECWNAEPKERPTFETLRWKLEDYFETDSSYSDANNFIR
Summary of the method: as §1

[6] = target: T6, NEK6 (Homo sapiens, UniProt Q9HC98)
T6 construct: purchased Reaction Biology Corp
T6 sequence (Q9HC98 whole entry): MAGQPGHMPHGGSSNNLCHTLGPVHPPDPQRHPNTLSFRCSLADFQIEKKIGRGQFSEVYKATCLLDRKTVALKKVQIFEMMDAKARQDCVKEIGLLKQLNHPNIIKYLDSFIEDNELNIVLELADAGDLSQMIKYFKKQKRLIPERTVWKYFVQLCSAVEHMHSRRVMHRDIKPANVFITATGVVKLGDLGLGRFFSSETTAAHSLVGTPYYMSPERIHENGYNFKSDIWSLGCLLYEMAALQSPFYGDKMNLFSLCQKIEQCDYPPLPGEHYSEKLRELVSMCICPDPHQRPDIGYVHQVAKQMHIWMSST
Summary of the method: as §1

[7] = target: T7, GSK3a (Homo sapiens, UniProt P49840)
T7 construct: purchased Reaction Biology Corp
T7 sequence (P49840 whole entry): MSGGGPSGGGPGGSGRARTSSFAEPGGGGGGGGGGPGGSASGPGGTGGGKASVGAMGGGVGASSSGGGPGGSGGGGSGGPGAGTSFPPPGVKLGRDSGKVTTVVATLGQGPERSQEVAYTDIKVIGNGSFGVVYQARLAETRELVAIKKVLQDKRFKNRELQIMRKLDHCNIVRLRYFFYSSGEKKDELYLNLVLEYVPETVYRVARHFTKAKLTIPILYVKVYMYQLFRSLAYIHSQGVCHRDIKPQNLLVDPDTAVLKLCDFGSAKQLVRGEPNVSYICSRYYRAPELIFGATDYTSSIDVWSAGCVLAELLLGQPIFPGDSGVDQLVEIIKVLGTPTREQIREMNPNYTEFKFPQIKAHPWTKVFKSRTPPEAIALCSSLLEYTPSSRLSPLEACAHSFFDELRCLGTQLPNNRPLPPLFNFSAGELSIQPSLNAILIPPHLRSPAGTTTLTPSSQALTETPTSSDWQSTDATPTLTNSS
Summary of the method: as §1

[8] = read-out: % Enzyme Activity (relative to DMSO controls) AVG
[9] = read-out: % Enzyme Activity (relative to DMSO controls) Data 1
[10] = read-out: % Enzyme Activity (relative to DMSO controls) Data 2

SMILES: CC(C)(C)C(=O)N1N=CC[C@H]1c1ccccc1 [GSK′963]
- remaining activity at 10 µM [1, 8]: 117%
- remaining activity at 10 µM [1, 9]: 112%
- remaining activity at 10 µM [1, 10]: 121%
- remaining activity at 10 µM [2, 8]: 109%
- remaining activity at 10 µM [2, 9]: 108%
- remaining activity at 10 µM [2, 10]: 110%
- remaining activity at 10 µM [3, 8]: 106%
- remaining activity at 10 µM [3, 9]: 108%
- remaining activity at 10 µM [3, 10]: 104%
- remaining activity at 10 µM [4, 8]: 110%
- remaining activity at 10 µM [4, 9]: 112%
- remaining activity at 10 µM [4, 10]: 107%
- remaining activity at 10 µM [5, 8]: 86%
- remaining activity at 10 µM [5, 9]: 87.6%
- remaining activity at 10 µM [5, 10]: 84.4%
- remaining activity at 10 µM [6, 8]: 97.9%
- remaining activity at 10 µM [6, 9]: 100%
- remaining activity at 10 µM [6, 10]: 95.5%
- remaining activity at 10 µM [7, 8]: 111%
- remaining activity at 10 µM [7, 9]: 107%
- remaining activity at 10 µM [7, 10]: 114%
